Assays:
MAE-wt cells = test: H2O2 assay by oxidation of DCF-DA; format: cell-based, mouse; details: BMP4 18 hrs
Method: H2O2 assay: Cells grown in 6-well plates were treated with BMP4 or vehicle control for 18 hrs in the presence or absence of cell-permeable polyethylene glycol (PEG)-catalase (100 U/ml). Cells were then washed once with Hepes buffered saline solution (HBSS) followed by incubation with 7.5 μg/ml 2′, 7′-dichlorofluorescein diacetate (DCF-DA, Molecular Probes) in HBSS for 1 hr at 37 C° in the dark. Cells were washed with HBSS, incubated further for an additional 40 min in HBSS, and the DCF fluorescence intensities were measured in a Cytofluor Multi-Well plate reader (excitation at 475 nm and emission at 525 nm).
In addition, BMP4 stimulated production of H2O2 by 70% above control as determined by oxidation of DCF-DA (FIG. 10B). […] The cells were washed, incubated with DCF-DA, and the fluorescent intensities determined by fluorometry. Shown is a mean±SEM (n=3, p<0.05). In this assay, a redox cycling menadione (10 μM) was used as positive control (data not shown).

ICAM-1 = ICAM-1 surface expression by FACS analysis in HAEC; format: cell-based, human
Method: Endothelial cells: Mouse aortic endothelial cells (MAEC) were cultured and used at passages 4-8 as described (Cai, H., et al. (2002) J Bio Chem 107, 48311-48317). Human aortic endothelial cells (HAEC) purchased from Clonetics were cultured using EGM-2 bullet kit (Clonetics) and used at passages 4-8. Alternatively, endothelial cells obtained from the thoracic aortas of C57/BL6 control (MAE-wt) and p47^phox-null mice (MAE-p47^−/−) were isolated and cultured as described previously (Hwang, J. et al. (2003) J Biol Chem 278:47291-8), and used between passages 4-10.
Shear stress studies: Confluent endothelial monolayers grown in 100 mm tissue culture dishes were exposed to an arterial level of uni-directional LS (15 dyn/cm^2) in the growth medium by rotating a Teflon cone (0.5° cone angle) as described previously. To mimic unstable shear conditions in vivo, endothelial cells were exposed to OS with directional changes of flow at 1 Hz cycle (±5 dyn/cm^2) by rotating the cone back-and-forth using a stepping motor (Servo Motor) and a computer program (DC Motor Company, Atlanta, Ga.). In some studies, 5 dyn/cm^2 unidirectional LS was used for comparison to OS (±5 dyn/cm^2).
(§1) Fluorescence activated cytometry sorting (FACS) analysis: Treated cells were dissociated into single cell suspensions using 0.25% trypsin-EDTA and resuspended in a FACS buffer (Hank's buffered solution containing 5% FBS). Aliquots of cell suspensions were incubated with ICAM-1 antibody (R&D Systems) for 20 min on ice, washed twice with FACS buffer, and incubated with secondary antibody (fluorescein-5-isothiocyanate- or phycoerytherin-conjugated, Chemicon) for 20 min on ice in the dark. Then samples were washed again, fixed in 1% paraformaldehyde and analyzed by FACS (Calibur, Becton-Dickinson) using CellQuest software. The fluorescence intensity of ICAM-1 and forward cell scattering of 30,000 cells were measured and the geometric means calculated from histograms were shown. In some studies, HAEC were transfected with either BMP4 cloned in a bi-cistronic pAdTrack CMV vector or an empty vector, both expressing green fluorescent protein (GFP), using Lipofectamine 2000. In these experiments, ICAM-1 expression was measured in the red phycoerytherin channel, while the green channel was used to monitor the […] expression-GFP expression was determined by FACS analysis and fluorescence microscopy (20-30% transfection efficiency). Because expression of GFP was similar among different treatment groups within the same experiment, it was unnecessary to normalize ICAM-1 expression data to GFP level. Human recombinant noggin was purchased from R&D Systems and used in all experiments at 50 ng/ml (Dale, L., and Jones, C. M. (1999) Bioessays 21, 751-760; Zimmerman, L. B., et al. (1996) Cell 86, 599-606; Brunei, L. J., et al. (1998) Science 280, 1455-1457).

VCAM-1 = VCAM-1 expression in endothelial cells; format: cell-based, human
Method: as §1
HAEC treated with OS, BMP4 or static condition were analyzed by FACS using antibodies specific to VCAM-1 (C) and E-selectin (D) as described in panel A using TNFa (1OOU/ml, for 2 hr) as a positive control.

NF-κB = NF-κB assay with NF-κB-SEAP reporter construct; format: cell-based; details: NF-κB-SEAP co-transfected with BMP4 vector vs empty vector
Method: NF-κB assay: NF-κB activity was determined by using a NF-κB reporter construct, NF-κB-SEAP vector (lug, Clontech) expressing a secreted form of placental alkaline phosphatase driven by […] sequences in tandem. This construct was co-transfected with 0.5 μg of either pAdTrack BMP4 or empty vector control using Lipofectamine 2000. Six hours post transfection, conditioned media were centrifuged, heat-treated at 65° C. (to inactivate endogenous alkaline phosphatase) for 30 min, and followed by chemiluminescence alkaline phosphatase assay according to the manufacturer's instructions.
In this study, NF-κB-SEAP construct expressing a secreted form of placental alkaline phosphatase driven by 4 κB sequences in tandem was co-transfected with either BMP4 vector or empty vector control by a Lipofectamine method used above (FIG. 5F).

Substance: BMP4
- production of H2O2 above control (MAE-wt cells): 70%
- ICAM-1 expression above vector control cells (ICAM-1; HAEC transfected with BMP4 vector (Lipofectamine)): 3 to 4 fold
- ICAM-1 expression above empty vector control (ICAM-1; HAEC, BMP4 overexpression (transfection)): 84%
- effect on VCAM-1 (VCAM-1; FIG. 5E study, p>0.05, n=3): marginal at best and not significant
- effect on surface expression of VCAM-1 (VCAM-1; HAEC, FACS, TNF-α 100 U/ml for 2 hr as positive control): neither OS nor BMP4 had any effect
- NF-κB activity above controls (NF-κB): more than 3 fold
